In US9745357B2, “Peptides used for treating cancers and, in particular, chronic lymphoid leukaemia” (Centre National de la Recherche Scientifique, priority 2009, dated 2017):
No end group written: not given here.

Assays:
[1] = tested on: cells derived from a simian kidney cancer (COS7); type: cell-based; details: 4 h, 40 μM
Method: (§1) FIG. 7: Activity of the A1WT peptide on cells of lymphocytic, lymphoid, gastric, colonic or renal origin The cells are prepared and placed in culture (see Materials and Methods) and then incubated for 4 H with the A1WT or A1 YALA peptide. The percentage cell survival corresponds to the percentage of cells labeled neither with annexin nor with propidium iodide, evaluated by flow cytometry. The names of the pathological conditions from which the patients from whom the samples are taken are suffering are indicated under the figure. The control T (L.T.) and B (L.B.) lymphocytes are taken from patients suffering from a disease not related to a lymphocytic pathological condition (hemochromatosis).
(§2) The cells were cultured in a culture medium composed either of RPMI 1640 (B lymphocytes) or of DMEM (COS7, HCT116, HGT1, 293, HeLa) containing 10% of FCS (fetal calf serum, 1% of penicillin-streptomycin and 1% of glutamine, Gibco BRL). The cells are distributed in a 24-well plate and cultured at 37° C. in a humid atmosphere under 5% CO2.
(§3) 400 μl of cell suspension (1×10^6 cells/ml) per well were treated for 4 h or 24 h with various concentrations of peptides. The test for activity of the peptides in the presence of emetine (FIG. 6) was carried out by preincubating the cells with 100 μM of emetine for one hour before the addition of peptide.
(§4) After the cells have been washed with PBS, they were analyzed using the Annexin V-FITC IP system according to the supplier's recommendations (Beckman Coulter).

[2] = tested on: HGT1 cell line derived from a gastric cancer; type: cell-based; details: 4 h, 40 μM
Method: as §1, §2, §3, §4

[3] = tested on: cells derived from a human colon cancer (HCT116); type: cell-based; details: 4 h, 40 μM
Method: as §1, §2, §3, §4

[4] = tested on: control T lymphocytes (patients suffering from hemochromatosis); assay: Cell survival of control T lymphocytes, annexin/propidium iodide flow cytometry; type: cell-based, human; details: 40 μM, 4 hours; FIG. 9
[5] = tested on: cap-dependent translation (eIF4E-dependent); assay: Effect of the peptides on translation of capped luciferase mRNA in rabbit reticulocyte lysate; type: biochemical; details: 50 μM peptide, compared with DMSO = 100%; FIG. 2
Method: The peptides having the IRS motif and the sequences of 4EBPlike type (A1WT, BPSgWT, and BP2WT) or the mutant sequences of 4EPBlike type (A1YALA, BPSgYALA, BP2YALA) are incubated in rabbit reticulocyte lysate containing capped mRNAs encoding luciferase, an enzyme of which the activity can be easily assayed. The translational activity is directly proportional to the activity of the luciferase produced. The translational activity in the presence of peptide is compared with that obtained during the addition of an equivalent volume of DMSO, considered to be 100%.
The peptides were produced, purified by HPLC (purity>95%), and freeze-dried by Thermofisher Scientific. The peptides were then dissolved at 10 mM in DMSO.
The capped mRNAs encoding Renilla luciferase (Luc R) were produced by the T7 Message Machine Kit system (Ambion) from the pGb-Eg2-410Δ2-hxG-A65 plasmid linearized with EcoRV (Legagneux V, Omilli F, Osborne HB (1995) Substrate-specific regulation of RNA deadenylation in Xenopus embryo and activated egg extracts. RNA 1: 1001-1008).
The Luc R mRNAs were translated for one hour at 30° C. in rabbit reticulocyte lysate (Flexi Rabbit Reticulocyte Lysate System, Promega) in the presence of 50 μM of peptide. The luciferase activity was determined using the Renilla luciferase assay (Promega) on the Tristar LB941 luminometer (Berthold).
A capped mRNA (having a cap at the 5′ end) encoding luciferase, a protein which can be easily assayed by measuring its activity, was translated in the presence of these various peptides in rabbit reticulocyte lysate (FIG. 2). The luciferase activity measured is directly proportional to the amount of luciferase protein produced and therefore to the cap-dependent translational activity. Since the peptides are dissolved in DMSO, it was important to test the effect of DMSO on the translation. […] The translational activity in the presence of peptide was compared with that obtained when an equal volume of DMSO is added, considered to be equal to 100%.

[6] = tested on: B-cell prolymphocytic leukemia cells; type: cell-based, human; details: 24 h
Method: as §1, §2, §3, §4
(§5) The cells of lymphoid origin all originated from samples taken from patients suffering from various pathological conditions classified according to the seat of the tumor proliferation. This proliferation takes place either in the bone marrow, for CLL, B-cell prolymphocytic leukemia and T-cell acute lymphoblastic leukemia (T-ALL); or in the lymph nodes for mantle cell lymphoma and marginal zone lymphoma. A classification can also be carried out according to the cell type affected: B lymphocytes (CLL, B-cell prolymphocytic leukemia, mantle cell lymphoma and marginal zone lymphoma) or T lymphocytes (T-ALL).

[7] = tested on: marginal zone lymphoma (MZL) cells; type: cell-based, human; details: 4 h, 40 μM
Method: as §1, §2, §3, §4, §5

[8] = tested on: T lymphocytes from a patient suffering from T-cell acute lymphoblastic leukemia (T-ALL); type: cell-based, human; details: FIG. 7, 4 H incubation
Method: as §1, §2, §3, §4, §5

[9] = tested on: mantle cell lymphoma cells; type: cell-based, human; details: 4 h, 40 μM
Method: as §1, §2, §3, §4, §5

[10] = tested on: Jok cells (cell line derived from B lymphocytes); assay: Cell survival of Jok cells, annexin/propidium iodide flow cytometry; type: cell-based, human
Method: The cells are treated as indicated for FIG. 7, with the CLL cells, control T lymphocytes and Jok lymphocytes, which are incubated with the A1 WT IRS peptide and derivatives thereof described in table 1. The Jok cells were incubated either with 20 μM (JOK 20) or with 40 μM (JOK 40) of each of the peptides. In the interests of simplifying the legend, the A1 WT IRS peptide is referred to as “WT”. Likewise, the derivatives thereof are referred to by the name of the mutations (A1 K3I IRS is referred to as “K3I”, for example).
as §2, §3, §4
The peptides were tested on B lymphocytes from patients suffering from chronic lymphoid leukemia, control T lymphocytes, or Jok cells (cell line derived from B lymphocytes). The experiment was repeated three times for each type of cell tested.

RRKYGRDFLLRFRYIRS [A1 WT IRS, RRKYGRDFLLRFRYIRS]
cell survival [1]: 90% | cell survival [2]: more than 88% | cell survival [3]: 94% | effect of the peptide on cell mortality, in words (relative to A1 WT IRS) [4]: the survival rate is higher in the control T cells | inhibition of translation (luciferase activity) [5]: more substantially inhibits the translation | cell survival [6]: 20% | survival rate [7]: approximately 30% | effect on cell survival [8]: as great as for the CLL cells | survival rate [9]: approximately 30% | cell effect Jok 20 (survival) ([10]; 20 μM peptide, 4 hours of culture, cells not labeled with annexin or propidium iodide): + (+: survival <25%) | cell effect Jok 40 (survival) ([10]; 40 μM peptide, 4 hours of culture, cells not labeled with annexin or propidium iodide): + (+: survival <25%) | effect of the peptide on cell mortality, in words (relative to A1 WT IRS) ([10]; 40 μM, 4 hours, FIG. 9): high cell mortality
